Data as given in ChEMBL document CHEMBL4138296, “Nonacidic Chemotype Possessing N-Acylated Piperidine Moiety as Potent Farnesoid X Receptor (FXR) Antagonists” (ACS Med Chem Lett, 2018).
Activity calls are given as the source filed them. No cut-off for these calls is given here.

What was measured:
Bile acid receptor = biological target: T1, Bile acid receptor (Homo sapiens, UniProt Q96RI1); assay: Antagonist activity at human FXR expressed in Hep3B cells assessed as inhibition of CDCA-induced FXR response element driven luciferase activity after 24 hrs; format: cell-based
T1 sequence (Q96RI1 whole entry): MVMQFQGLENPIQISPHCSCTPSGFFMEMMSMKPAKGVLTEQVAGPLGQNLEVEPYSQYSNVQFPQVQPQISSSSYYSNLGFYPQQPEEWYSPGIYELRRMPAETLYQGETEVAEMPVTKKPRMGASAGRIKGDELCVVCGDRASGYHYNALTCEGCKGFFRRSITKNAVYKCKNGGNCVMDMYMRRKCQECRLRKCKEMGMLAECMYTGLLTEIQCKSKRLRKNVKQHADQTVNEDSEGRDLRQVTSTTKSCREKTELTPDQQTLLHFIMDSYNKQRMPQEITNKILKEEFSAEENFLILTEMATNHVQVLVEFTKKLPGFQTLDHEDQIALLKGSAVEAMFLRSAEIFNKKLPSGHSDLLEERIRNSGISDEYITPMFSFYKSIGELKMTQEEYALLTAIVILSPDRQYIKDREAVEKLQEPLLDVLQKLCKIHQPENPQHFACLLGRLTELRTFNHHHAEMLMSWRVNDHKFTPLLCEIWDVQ

Hep 3B2 = assay: Cytotoxicity against human Hep3B cells assessed as reduction in cell viability by MTT assay; format: functional, cell-based
[1] = biological target: T2, Peroxisome proliferator-activated receptor delta (Homo sapiens) (UniProt Q03181); assay: Antagonist activity at PPARdelta (unknown origin) assessed as inhibition of GW501516-induced response at 1 uM by luciferase reporter gene assay
T2 sequence (whole entry): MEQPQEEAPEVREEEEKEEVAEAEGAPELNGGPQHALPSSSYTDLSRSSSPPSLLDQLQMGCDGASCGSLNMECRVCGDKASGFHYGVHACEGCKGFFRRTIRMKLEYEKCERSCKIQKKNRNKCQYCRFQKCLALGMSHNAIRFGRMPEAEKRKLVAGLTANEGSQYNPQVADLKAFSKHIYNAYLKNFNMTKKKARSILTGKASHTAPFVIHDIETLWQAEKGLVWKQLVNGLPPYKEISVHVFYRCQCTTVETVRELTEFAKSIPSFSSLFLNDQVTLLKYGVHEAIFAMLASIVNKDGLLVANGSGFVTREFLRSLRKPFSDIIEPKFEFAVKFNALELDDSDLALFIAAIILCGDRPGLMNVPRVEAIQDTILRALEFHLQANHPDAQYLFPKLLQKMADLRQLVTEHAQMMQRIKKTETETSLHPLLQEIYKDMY

[2] = biological target: T3, Retinoic acid receptor RXR-alpha (Homo sapiens) (UniProt P19793); assay: Agonist activity at human RXRalpha expressed in HEK293T cells at 1 uM by luciferase reporter gene assay; format: cell-based
T3 sequence (whole entry): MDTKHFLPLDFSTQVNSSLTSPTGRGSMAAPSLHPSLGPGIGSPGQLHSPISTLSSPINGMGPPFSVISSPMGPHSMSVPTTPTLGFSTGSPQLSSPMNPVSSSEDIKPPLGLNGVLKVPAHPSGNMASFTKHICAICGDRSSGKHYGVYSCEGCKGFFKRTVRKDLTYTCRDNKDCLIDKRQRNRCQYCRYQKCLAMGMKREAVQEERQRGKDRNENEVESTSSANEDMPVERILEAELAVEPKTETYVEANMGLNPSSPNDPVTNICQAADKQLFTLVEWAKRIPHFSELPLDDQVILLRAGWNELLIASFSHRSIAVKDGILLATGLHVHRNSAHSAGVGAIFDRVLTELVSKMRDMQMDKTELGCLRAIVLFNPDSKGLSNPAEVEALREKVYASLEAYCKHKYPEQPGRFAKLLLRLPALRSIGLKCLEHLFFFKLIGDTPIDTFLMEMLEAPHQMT

[3] = biological target: T4, Peroxisome proliferator-activated receptor alpha (Homo sapiens) (UniProt Q07869); assay: Agonist activity at PPARalpha (unknown origin) at 1 uM by luciferase reporter gene assay
T4 sequence (whole entry): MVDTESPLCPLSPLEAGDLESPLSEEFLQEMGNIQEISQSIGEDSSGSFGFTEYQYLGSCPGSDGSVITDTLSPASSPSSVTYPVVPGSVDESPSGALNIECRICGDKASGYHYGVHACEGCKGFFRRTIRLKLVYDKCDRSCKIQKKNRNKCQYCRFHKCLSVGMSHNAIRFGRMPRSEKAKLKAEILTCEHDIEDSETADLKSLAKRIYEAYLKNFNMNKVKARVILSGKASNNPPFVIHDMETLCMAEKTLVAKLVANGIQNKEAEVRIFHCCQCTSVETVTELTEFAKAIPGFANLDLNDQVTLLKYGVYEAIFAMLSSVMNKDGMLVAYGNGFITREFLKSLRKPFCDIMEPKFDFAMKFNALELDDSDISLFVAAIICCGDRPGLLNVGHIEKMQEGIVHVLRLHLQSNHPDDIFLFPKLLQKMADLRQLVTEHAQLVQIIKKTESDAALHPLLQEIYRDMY

[4] = biological target: T2, Peroxisome proliferator-activated receptor delta (Homo sapiens); assay: Agonist activity at PPARdelta (unknown origin) at 1 uM by luciferase reporter gene assay
[5] = biological target: T5, G-protein coupled bile acid receptor 1 (Homo sapiens) (UniProt Q8TDU6); assay: Antagonist activity at TGR5 (unknown origin) assessed as inhibition of lithocholic acid-induced response at 1 uM by luciferase reporter gene assay; format: functional
T5 sequence (whole entry): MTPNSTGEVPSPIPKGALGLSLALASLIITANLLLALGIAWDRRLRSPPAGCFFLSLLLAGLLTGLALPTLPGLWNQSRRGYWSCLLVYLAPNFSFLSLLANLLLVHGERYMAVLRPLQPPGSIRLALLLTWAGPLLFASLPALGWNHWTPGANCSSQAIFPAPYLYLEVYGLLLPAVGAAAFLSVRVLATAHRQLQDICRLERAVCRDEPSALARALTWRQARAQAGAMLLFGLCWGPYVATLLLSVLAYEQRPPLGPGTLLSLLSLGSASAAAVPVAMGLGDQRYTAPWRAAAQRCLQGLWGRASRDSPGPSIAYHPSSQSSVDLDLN

3T3-L1 = assay: Cytotoxicity against mouse 3T3L1 cells assessed as reduction in cell viability measured up to 10 uM after 6 days by CCK-8 assay; format: cell-based; settings: 3t3-l1, 144 h

IC50 (Bile acid receptor): < 1 pM
inhibition [1]: inactive
Activity [2]: inactive
Activity [3]: inactive
Activity [4]: inactive
inhibition [5]: inactive
Compound: Cc1ccc2nc([C@H](CC3CCN(C(=O)C(C)C)CC3)N3C(=O)CN(c4ccc(Oc5ccccc5)cc4)C3=O)n(C)c2c1
IC50 (Hep 3B2): > 100 µM
Activity (3T3-L1): Non-Toxic
